Earlier results in PMC8287861 (Frontiers in Microbiology, 2021).
In brackets after ≈: the same amount, converted by molar mass. Where two headings read alike, the source gives them in different places. One block for each compound: values may come before it.

Tests used:
Pseudomonas aeruginosa [1] = system: Pseudomonas aeruginosa; design: method as in Lomovskaya et al. (2021); settings: ref Lomovskaya et al. (2021); for MIC50 / MIC90: challenge panel, QPX7728 at 8 μg/ml
[2] = system: isogenic strains of P. aeruginosa that produced KPC; design: method as in Lomovskaya et al., 2020a; settings: ref Lomovskaya et al., 2020a
[3] = system: KPC-producing strains of Klebsiella pneumoniae and blaKPC mutants; design: method as in Nelson et al., 2019; settings: ref Nelson et al., 2019
Pseudomonas aeruginosa [4] = system: Pseudomonas aeruginosa; design: method as in Lomovskaya et al. (2021); settings: panel reflecting current MIC distribution (N = 500); QPX7728 at 8 μg/ml; ref Lomovskaya et al. (2021)
[5] = system: Enterobacterales producing ESBLs and carbapenemases; design: method as in Rubio-Aparicio et al., 2019; settings: ref Rubio-Aparicio et al., 2019

MIC50 (Pseudomonas aeruginosa [1]; All (N = 290)): 32 µg/mL (≈ 73.5 µM)
MIC90 (Pseudomonas aeruginosa [1]; All (N = 290)): >64 µg/mL
MIC50 (Pseudomonas aeruginosa [1]; MBL (N = 61)): 32 µg/mL (≈ 73.5 µM)
MIC90 (Pseudomonas aeruginosa [1]; MBL (N = 61)): >64 µg/mL
MIC50 (Pseudomonas aeruginosa [1]; No MBL (N = 229)): 32 µg/mL (≈ 73.5 µM)
MIC90 (Pseudomonas aeruginosa [1]; No MBL (N = 229)): >64 µg/mL
Compound: C[C@H]1[C@H](NC(=O)/C(=N\OC(C)(C)C(=O)O)c2csc(N)n2)C(=O)N1S(=O)(=O)O [Aztreonam, aztreonam]

Compound: C[C@@H](O)[C@H]1C(=O)N2C(C(=O)[O-])=C(SC3Cn4cnc[n+]4C3)[C@H](C)[C@H]12 (stereo partly drawn) [Biapenem]
Biapenem MIC ([2]; PAM4126, mexR (MexAB-OprM)): 64 µg/mL
Biapenem MIC ([2]; PAM4129, nfxB (MexCD-OprJ)): 8 µg/mL
Biapenem MIC ([2]; PAM4132, mexT (MexEF-OprM)): 128 µg/mL
Biapenem MIC ([2]; PAM4150, mexZ (MexXY-OprM)): 64 µg/mL
Biapenem MIC ([2]; PAM4224, Wild-type): 64 µg/mL
Biapenem MIC ([2]; PAM4365, MexA::Tet): 64 µg/mL
MIC of the vector only strain ([2]; vector only counterpart of PAM4126, mexR (MexAB-OprM)): 0.125 µg/mL
MIC of the vector only strain ([2]; vector only counterpart of PAM4129, nfxB (MexCD-OprJ)): 0.03 µg/mL
MIC of the vector only strain ([2]; vector only counterpart of PAM4132, mexT (MexEF-OprM)): 0.5 µg/mL
MIC of the vector only strain ([2]; vector only counterpart of PAM4150, mexZ (MexXY-OprM)): 0.25 µg/mL
MIC of the vector only strain ([2]; vector only counterpart of PAM4224, Wild-type): 0.25 µg/mL
MIC of the vector only strain ([2]; vector only counterpart of PAM4365, MexA::Tet): 0.25 µg/mL

Compound: CO/N=C(\C(=O)N[C@@H]1C(=O)N2C(C(=O)[O-])=C(C[N+]3(C)CCCC3)CS[C@H]12)c1csc(N)n1 [Cefepime, cefepime]
MIC ([3]; KP1074, KPC-3, SHV-11, TEM-1/GD): >128 µg/mL
MIC ([3]; KP1099, KPC-2, SHV-11, SHV-12, CTX-M-14/GD): >128 µg/mL
MIC ([3]; KP1102, KPC-3, TEM-1, SHV-11/GD): >128 µg/mL
MIC ([3]; KP1246, KPC-3, SHV-12, SHV-11/FL): 128 µg/mL (≈ 266 µM)
MIC ([3]; KP1252, KPC-3, TEM-1, SHV-11/FL): >128 µg/mL
MIC ([3]; KP1317, KPC-3, TEM-1, SHV-11/GD): >128 µg/mL
MIC ([3]; KP1500, KPC-3, TEM-1, SHV-11, CTX-M-15 OXA-1 OXA-9/IS at −48): >128 µg/mL
MIC ([3]; KPM3191, KPC-3:: DDK duplication at aa#831 (KPC-29)): 64 µg/mL (≈ 133 µM)
MIC ([3]; KPM3192, KPC-3:: D179Y (KPC-31)): 32 µg/mL (≈ 66.6 µM)
MIC ([3]; KPM3200, KPC-3::duplication of EAVI (aa#278)): >128 µg/mL
MIC ([3]; KPM3205, KPC-3 ::duplication of KKDY (aa#273)): 128 µg/mL (≈ 266 µM)
MIC ([3]; KPM3210, KPC-2::D179N): 128 µg/mL (≈ 266 µM)
MIC ([3]; KPM3212, deletion of ELNSAI at aa#497): 128 µg/mL (≈ 266 µM)
MIC ([3]; KPM3213, KPC-2::D179Y (KPC-31), selected from KP1099): >128 µg/mL
MIC ([3]; KPM3214, KPC-2::D179A): 128 µg/mL (≈ 266 µM)
MIC ([3]; KPM3493, KPC-3::duplication of EL at aa#164 (KPC-25)): 32 µg/mL (≈ 66.6 µM)
MIC ([3]; KPM3494, KPC-3::R167S): 128 µg/mL (≈ 266 µM)
MIC ([3]; KPM3495, KPC-3::A175V): >128 µg/mL
MIC ([3]; KPM3511, KPC-3::P174Q): 64 µg/mL (≈ 133 µM)
MIC ([3]; KPM3512, KPC-3:: P174L): 16 µg/mL (≈ 33.3 µM)
MIC ([3]; KPM3517, KPC-3::D179Y (KPC-31)): >128 µg/mL
MIC ([3]; KPM3520, Both WT and mutant KPC-3::duplication of 8aa (aa#264–271)): >128 µg/mL
MIC ([3]; KPM3523, Both WT and mutant KPC-3:: deletion of EL (aa#241–242)): 128 µg/mL (≈ 266 µM)
MIC ([3]; KPM3546, KPC-3::R164H): >128 µg/mL
% of isolates shifted by QPX7728 at or below breakpoint (Pseudomonas aeruginosa [1]; challenge panel (N = 290), with QPX7728, 8 or 16 μg/ml for cefepime and piperacillin, respectively): 70.3%
MIC50 (Pseudomonas aeruginosa [1]; All (N = 290)): 32 µg/mL (≈ 66.6 µM)
MIC90 (Pseudomonas aeruginosa [1]; All (N = 290)): 64 µg/mL (≈ 133 µM)
MIC50 (Pseudomonas aeruginosa [1]; MBL (N = 61)): 64 µg/mL (≈ 133 µM)
MIC90 (Pseudomonas aeruginosa [1]; MBL (N = 61)): 64 µg/mL (≈ 133 µM)
MIC50 (Pseudomonas aeruginosa [1]; No MBL (N = 229)): 32 µg/mL (≈ 66.6 µM)
MIC90 (Pseudomonas aeruginosa [1]; No MBL (N = 229)): 64 µg/mL (≈ 133 µM)
MIC50 (Pseudomonas aeruginosa [4]): 4 µg/mL (≈ 8.32 µM)
MIC90 (Pseudomonas aeruginosa [4]): 32 µg/mL (≈ 66.6 µM)

MIC50 ([5]; All Enterobacterales (N = 972)): >64/>64 μg/ml
MIC90 ([5]; All Enterobacterales (N = 972)): >64/>64 μg/ml
MIC50 ([5]; CRE KPC (N = 292)): >64/>64 μg/ml
MIC90 ([5]; CRE KPC (N = 292)): >64/>64 μg/ml
MIC50 ([5]; CRE MBL (N = 226)): >64/>64 μg/ml
MIC90 ([5]; CRE MBL (N = 226)): >64/>64 μg/ml
MIC50 ([5]; CRE OXA-48 (N = 47)): >64/>64 μg/ml
MIC90 ([5]; CRE OXA-48 (N = 47)): >64/>64 μg/ml
MIC50 ([5]; ESBLs, no CRE (N = 371)): >64/>64 μg/ml
MIC90 ([5]; ESBLs, no CRE (N = 371)): >64/>64 μg/ml
MIC50 ([5]; Non-CP CRE): >64/>64 μg/ml
MIC90 ([5]; Non-CP CRE): >64/>64 μg/ml
Compound: COCC1=C(C(=O)O)N2C(=O)[C@@H](NC(=O)/C(=N\OC)c3csc(N)n3)[C@H]2SC1 [Cefpodoxime]

MIC50 ([5]; All Enterobacterales (N = 972)): 32 µg/mL (≈ 78 µM)
MIC90 ([5]; All Enterobacterales (N = 972)): > 64 µg/mL
MIC50 ([5]; CRE KPC (N = 292)): 16 µg/mL (≈ 39 µM)
MIC90 ([5]; CRE KPC (N = 292)): > 64 µg/mL
MIC50 ([5]; CRE MBL (N = 226)): >64/>64 μg/ml
MIC90 ([5]; CRE MBL (N = 226)): >64/>64 μg/ml
MIC50 ([5]; CRE OXA-48 (N = 47)): 64/>64 μg/ml
MIC90 ([5]; CRE OXA-48 (N = 47)): 64/>64 μg/ml
MIC50 ([5]; ESBLs, no CRE (N = 371)): 8 µg/mL (≈ 19.5 µM)
MIC90 ([5]; ESBLs, no CRE (N = 371)): > 64 µg/mL
MIC50 ([5]; Non-CP CRE): >64/>64 μg/ml
MIC90 ([5]; Non-CP CRE): >64/>64 μg/ml
Compound: Nc1nc(/C(=C/CC(=O)O)C(=O)N[C@@H]2C(=O)N3C(C(=O)O)=CCS[C@H]23)cs1 [Ceftibuten]
